Data published in US10023602B2, “Hamamelitannin analogues and uses thereof” (Universiteit Gent, priority 2014, dated 2018).

Tests used:
[1] = system: methicillin resistant S. aureus Mu50 strain (S. aureus ATCC700699) biofilm; experiment: Biofilm susceptibility to vancomycin, combination treatment regimen (mature biofilm treated with compound plus vancomycin); format: cell-based; conditions: for Combin. (100 μM): percentage Colony Forming Units (CFU's) per biofilm: compound 100 μM together with VAN 20 μg/ml on mature biofilm, compared to the untreated (negative) control; for EC50: concentration needed to get 50% killing compared to antibiotic alone (VAN 20 μg/ml) and complete killing, read-out: Combin. (EC50)
Procedure: (§1) The compounds were evaluated for their effect on biofilm susceptibility both under pre-treatment and combination treatment regimens. In the pre-treatment regimen, a methicillin resistant S. aureus Mu50 strain (S. aureus ATCC700699) was allowed to form biofilms in the presence of the compounds after which the biofilm was treated with vancomycin (20 μg/ml). In the combination treatment regimen, S. aureus Mu50 was allowed to form a mature biofilm after which it was treated with a combination of a compound and vancomycin. In brief, 100 μl of a standardized inoculum (10^8 CFU/ml) was placed in the wells of a round-bottom 96-well microtiter plate. The cells were allowed to adhere to the plate in the absence (combined treatment) or presence (pre-treatment) of the compounds (0.1-250 μM) for 4 h at 37° C. After this adhesion step, non-adhered cells were removed, the wells were rinsed and fresh medium with or without the compounds was added. The plates were incubated for an additional 20 h at 37° C. After this, the medium was removed, biofilms were rinsed with physiological saline and vancomycin (20 μg/ml) was added alone (pre-treatment) or with the compounds (combined treatment, 0.1-250 μM). Plates were placed at 37° C. for 24 h after which medium was removed, wells were rinsed and the surviving cells in each condition were collected. The number of surviving cells under each condition was compared to vancomycin treatment alone and was assessed by conventional plating. The REF compound (hamamelitannin) was also observed for its effect on biofilm susceptibility towards other antibiotics (incl. vancomycin, cefoxitin, tobramycin, cefazolin, cefalonium, daptomycin, linezolide and cephalexin). Biofilms were formed as described above and were treated with the antibiotics alone or in combination with the REF compound (250 μM). The number of surviving cells under each condition was compared to the untreated control biofilm and was assessed by conventional plating.

[2] = system: methicillin resistant S. aureus Mu50 strain (S. aureus ATCC700699) biofilm; experiment: Biofilm susceptibility to vancomycin, pre-treatment regimen (biofilm formed in presence of compound, then vancomycin); format: cell-based; conditions: for Pretreat (100 μM): percentage Colony Forming Units (CFU's) per biofilm: compound 100 μM during biofilm formation, then VAN 20 μg/ml, compared to the untreated (negative) control; for EC50: concentration needed to get 50% killing compared to antibiotic alone (VAN 20 μg/ml) and complete killing, read-out: Pretreat. (EC50)
Procedure: as §1

| Structure (SMILES) | Combin. (100 μM): percentage Colony Forming Units (CFU's) per biofilm [1] | EC50 [1] | Pretreat (100 μM): percentage Colony Forming Units (CFU's) per biofilm [2] | EC50 [2] |
| --- | --- | --- | --- | --- |
| O=C(NC[C@H]1OC(O)[C@@](O)(CNC(=O)c2cc(O)c(O)c(O)c2)[C@@H]1O)c1cc(O)c(O)c(O)c1 (stereo partly drawn) [compound 15, N,N′-(((2R,3R,4R)-3,4,5-trihydroxytetrahydrofuran-2,4-diyl)bis(methylene))bis(3,4,5-trihydroxybenzamide)] | 57.74 percentage | 191 µM | 22.35 percentage | 63.8 µM |
| COc1cc(C(=O)NC[C@H]2OC(O)[C@@](O)(CNC(=O)c3cc(OC)c(OC)c(OC)c3)[C@@H]2O)cc(OC)c1OC (stereo partly drawn) [compound 16, N,N′-(((2R,3R,4R)-3,4,5-trihydroxytetrahydrofuran-2,4-diyl)bis(methylene))bis(3,4,5-trimethoxybenzamide)] | 71.85 percentage | 238 µM | 62.41 percentage | 207 µM |
| O=C(NC[C@H]1OC(O)[C@@](O)(CNC(=O)c2ccc(O)c(O)c2)[C@@H]1O)c1ccc(O)c(O)c1 (stereo partly drawn) [compound 17, N,N′-(((2R,3R,4R)-3,4,5-trihydroxytetrahydrofuran-2,4-diyl)bis(methylene))bis(3,4-dihydroxybenzamide)] | 61.16 percentage | 169 µM | 55.76 percentage | 182 µM |
| O=C(NC[C@H]1OC(O)[C@@](O)(CNC(=O)c2cc(O)cc(O)c2)[C@@H]1O)c1cc(O)cc(O)c1 (stereo partly drawn) [compound 18, N,N′-(((2R,3R,4R)-3,4,5-trihydroxytetrahydrofuran-2,4-diyl)bis(methylene))bis(3,5-dihydroxybenzamide)] | 79.55 percentage | 231 µM | 37.58 percentage | 116 µM |
| O=C(NC[C@H]1OC(O)[C@@](O)(CNC(=O)c2cccc(O)c2)[C@@H]1O)c1cccc(O)c1 (stereo partly drawn) [compound 19, N,N′-(((2R,3R,4R)-3,4,5-trihydroxytetrahydrofuran-2,4-diyl)bis(methylene))bis(3-hydroxybenzamide)] | 27.23 percentage | 52.3 µM | 19.78 percentage | 38.5 µM |
| O=C(NC[C@H]1OC(O)[C@@](O)(CNC(=O)c2ccc(O)cc2)[C@@H]1O)c1ccc(O)cc1 (stereo partly drawn) [compound 20, N,N′-(((2R,3R,4R)-3,4,5-trihydroxytetrahydrofuran-2,4-diyl)bis(methylene))bis(4-hydroxybenzamide)] | 27.23 percentage | 52.3 µM | 19.78 percentage | 85.6 µM |
| O=C(NC[C@H]1OC(O)[C@@](O)(CNC(=O)c2ccccc2)[C@@H]1O)c1ccccc1 (stereo partly drawn) [compound 21, N,N′-(((2R,3R,4R)-3,4,5-trihydroxytetrahydrofuran-2,4-diyl)bis(methylene))dibenzamide] | 56.02 percentage | 154 µM | 18.04 percentage | 73.6 µM |
| Cc1ccc(C(=O)NC[C@H]2OC[C@@](O)(CNC(=O)c3ccccc3)[C@@H]2O)cc1 [compound 151, N-(((2R,3R,4S)-4-(benzamidomethyl)-3,4-dihydroxytetrahydrofuran-2-yl)methyl)-4-methylbenzamide] | 24.59 percentage | – | 22.36 percentage | – |
| O=C(NC[C@H]1OC[C@@](O)(CNC(=O)c2ccccc2)[C@@H]1O)c1ccc(F)cc1 [compound 152, N-(((2R,3R,4S)-4-(benzamidomethyl)-3,4-dihydroxytetrahydrofuran-2-yl)methyl)-4-fluorobenzamide] | 14.05 percentage | – | 15.07 percentage | – |
| O=C(NC[C@H]1OC[C@@](O)(CNC(=O)c2ccccc2)[C@@H]1O)c1ccc(Cl)cc1 [compound 153, N-(((2R,3R,4S)-4-(benzamidomethyl)-3,4-dihydroxytetrahydrofuran-2-yl)methyl)-4-chlorobenzamide] | 8.577 percentage | 21.4 µM | 9.185 percentage | 18 µM |
| COc1ccc(C(=O)NC[C@H]2OC[C@@](O)(CNC(=O)c3ccccc3)[C@@H]2O)cc1 [compound 154, N-(((2R,3R,4S)-4-(benzamidomethyl)-3,4-dihydroxytetrahydrofuran-2-yl)methyl)-4-methoxybenzamide] | 22.56 percentage | – | 19.34 percentage | – |
| N#Cc1ccc(C(=O)NC[C@H]2OC[C@@](O)(CNC(=O)c3ccccc3)[C@@H]2O)cc1 [compound 155, N-(((2R,3R,4S)-4-(benzamidomethyl)-3,4-dihydroxytetrahydrofuran-2-yl)methyl)-4-cyanobenzamide] | 16.06 percentage | – | 15.57 percentage | – |
| CN(C)c1ccc(C(=O)NC[C@H]2OC[C@@](O)(CNC(=O)c3ccccc3)[C@@H]2O)cc1 [compound 156, N-(((2R,3R,4S)-4-(benzamidomethyl)-3,4-dihydroxytetrahydrofuran-2-yl)methyl)-4-(dimethylamino)benzamide] | 11.27 percentage | – | 16.58 percentage | – |
| O=C(NC[C@H]1OC[C@@](O)(CNC(=O)c2ccccc2)[C@@H]1O)c1ccc(C(F)(F)F)cc1 [compound 157, N-(((2R,3R,4S)-4-(benzamidomethyl)-3,4-dihydroxytetrahydrofuran-2-yl)methyl)-4-(trifluoromethyl)benzamide] | 11.25 percentage | – | 15.95 percentage | – |
| O=C(NC[C@H]1OC[C@@](O)(CNC(=O)c2ccccc2)[C@@H]1O)c1ccncc1 [compound 158, N-(((2R,3R,4S)-4-(benzamidomethyl)-3,4-dihydroxytetrahydrofuran-2-yl)methyl)isonicotinamide] | 13.89 percentage | 19.2 µM | 7.268 percentage | 9.94 µM |
| O=C(NC[C@H]1OC[C@@](O)(CNC(=O)c2ccccc2)[C@@H]1O)c1ccc(-c2ccccc2)cc1 [compound 159, N-(((2R,3R,4S)-4-(benzamidomethyl)-3,4-dihydroxytetrahydrofuran-2-yl)methyl)-[1,1′-biphenyl]-4-carboxamide] | 6.966 percentage | 11.3 µM | 10.97 percentage | 6.38 µM |
| Cc1cccc(C(=O)NC[C@H]2OC[C@@](O)(CNC(=O)c3ccccc3)[C@@H]2O)c1 [compound 160, N-(((2R,3R,4S)-4-(benzamidomethyl)-3,4-dihydroxytetrahydrofuran-2-yl)methyl)-3-methylbenzamide] | 23.39 percentage | – | 23.09 percentage | – |
| O=C(NC[C@H]1OC[C@@](O)(CNC(=O)c2ccccc2)[C@@H]1O)c1cccc(F)c1 [compound 161, N-(((2R,3R,4S)-4-(benzamidomethyl)-3,4-dihydroxytetrahydrofuran-2-yl)methyl)-3-fluorobenzamide] | 16.57 percentage | – | 9.353 percentage | – |
| O=C(NC[C@H]1OC[C@@](O)(CNC(=O)c2ccccc2)[C@@H]1O)c1cccc(Cl)c1 [compound 162, N-(((2R,3R,4S)-4-(benzamidomethyl)-3,4-dihydroxytetrahydrofuran-2-yl)methyl)-3-chlorobenzamide] | 29.06 percentage | – | 24.07 percentage | – |
| COc1cccc(C(=O)NC[C@H]2OC[C@@](O)(CNC(=O)c3ccccc3)[C@@H]2O)c1 [compound 163, N-(((2R,3R,4S)-4-(benzamidomethyl)-3,4-dihydroxytetrahydrofuran-2-yl)methyl)-3-methoxybenzamide] | 27.21 percentage | – | 28.44 percentage | – |
